The kinase profiling compilation of Christmann-Franck et al. (2016)

Experiments:
Assay in all cases: KINOMEscan competition binding
Settings in all cases: compound 10.0 µM
CDK19 (human) = CDK19 (human) (UniProt Q9BWU1)
CSNK1E (human) = CSNK1E (human) (UniProt P49674)
CSNK1G3 (human) = CSNK1G3 (human) (UniProt Q9Y6M4)
CSNK2A2 (human) = CSNK2A2 (human) (UniProt P19784)
CaMK1 (human) = CaMK1 (human) (UniProt Q14012)
EPHA5 (human) = EPHA5 (human) (UniProt P54756)
FGFR4 (human) = FGFR4 (human) (UniProt P22455)
FLT4 (human) = FLT4 (human) (UniProt P35916)
[1] = tested on: KIT (human), P10721 [V559D/T670I]
[2] = tested on: KIT (human), P10721 [V559D]
LIMK1 (human) = LIMK1 (human) (UniProt P53667)
MAP3K9 (human) = MAP3K9 (human) (UniProt P80192)
MAPK12 (human) = MAPK12 (human) (UniProt P53778)
Sequence of MAPK12 (human) (P53778 whole entry, looked up): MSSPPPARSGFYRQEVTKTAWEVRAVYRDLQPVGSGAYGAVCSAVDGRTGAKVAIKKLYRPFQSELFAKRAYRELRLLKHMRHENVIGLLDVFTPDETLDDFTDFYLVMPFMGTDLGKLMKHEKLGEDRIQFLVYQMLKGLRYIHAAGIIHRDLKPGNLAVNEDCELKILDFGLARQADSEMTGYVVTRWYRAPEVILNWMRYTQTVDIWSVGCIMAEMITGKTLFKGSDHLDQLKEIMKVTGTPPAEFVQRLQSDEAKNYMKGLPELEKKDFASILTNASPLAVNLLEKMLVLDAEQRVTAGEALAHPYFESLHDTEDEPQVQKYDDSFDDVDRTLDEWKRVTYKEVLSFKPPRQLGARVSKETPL

MAPK7 (human) = MAPK7 (human) (UniProt Q13164)
Sequence of MAPK7 (human) (Q13164 whole entry, looked up): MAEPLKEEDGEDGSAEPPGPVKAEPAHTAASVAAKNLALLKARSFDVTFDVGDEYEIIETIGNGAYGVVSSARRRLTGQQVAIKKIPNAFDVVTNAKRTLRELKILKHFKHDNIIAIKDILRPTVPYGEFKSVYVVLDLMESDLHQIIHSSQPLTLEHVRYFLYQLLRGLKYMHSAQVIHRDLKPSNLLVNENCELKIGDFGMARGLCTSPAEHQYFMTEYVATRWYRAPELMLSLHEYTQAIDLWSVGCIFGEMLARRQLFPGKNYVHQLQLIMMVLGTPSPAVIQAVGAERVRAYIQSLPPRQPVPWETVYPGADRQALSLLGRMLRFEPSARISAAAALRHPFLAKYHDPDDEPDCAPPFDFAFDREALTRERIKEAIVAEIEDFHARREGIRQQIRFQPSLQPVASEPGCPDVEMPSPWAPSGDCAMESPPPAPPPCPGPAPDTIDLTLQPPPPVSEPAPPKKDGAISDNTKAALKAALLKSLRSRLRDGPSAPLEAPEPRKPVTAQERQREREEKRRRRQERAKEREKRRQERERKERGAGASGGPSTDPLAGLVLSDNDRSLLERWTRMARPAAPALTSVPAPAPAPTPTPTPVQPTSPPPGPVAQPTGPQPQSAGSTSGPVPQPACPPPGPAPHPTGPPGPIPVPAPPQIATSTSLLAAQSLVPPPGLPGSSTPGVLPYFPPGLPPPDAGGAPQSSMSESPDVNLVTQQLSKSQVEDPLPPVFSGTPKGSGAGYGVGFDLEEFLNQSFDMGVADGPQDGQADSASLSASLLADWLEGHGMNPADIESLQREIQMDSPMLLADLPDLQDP

MAPK8 (human) = MAPK8 (human) (UniProt P45983)
MAPKAPK2 (human) = MAPKAPK2 (human) (UniProt P49137)
MARK2 (human) = MARK2 (human) (UniProt Q7KZI7)
MELK (human) = MELK (human) (UniProt Q14680)
MYLK (human) = MYLK (human) (UniProt Q15746)
MYLK2 (human) = MYLK2 (human) (UniProt Q9H1R3)
NEK5 (human) = NEK5 (human) (UniProt Q6P3R8)
Sequence of NEK5 (human) (Q6P3R8 whole entry, looked up): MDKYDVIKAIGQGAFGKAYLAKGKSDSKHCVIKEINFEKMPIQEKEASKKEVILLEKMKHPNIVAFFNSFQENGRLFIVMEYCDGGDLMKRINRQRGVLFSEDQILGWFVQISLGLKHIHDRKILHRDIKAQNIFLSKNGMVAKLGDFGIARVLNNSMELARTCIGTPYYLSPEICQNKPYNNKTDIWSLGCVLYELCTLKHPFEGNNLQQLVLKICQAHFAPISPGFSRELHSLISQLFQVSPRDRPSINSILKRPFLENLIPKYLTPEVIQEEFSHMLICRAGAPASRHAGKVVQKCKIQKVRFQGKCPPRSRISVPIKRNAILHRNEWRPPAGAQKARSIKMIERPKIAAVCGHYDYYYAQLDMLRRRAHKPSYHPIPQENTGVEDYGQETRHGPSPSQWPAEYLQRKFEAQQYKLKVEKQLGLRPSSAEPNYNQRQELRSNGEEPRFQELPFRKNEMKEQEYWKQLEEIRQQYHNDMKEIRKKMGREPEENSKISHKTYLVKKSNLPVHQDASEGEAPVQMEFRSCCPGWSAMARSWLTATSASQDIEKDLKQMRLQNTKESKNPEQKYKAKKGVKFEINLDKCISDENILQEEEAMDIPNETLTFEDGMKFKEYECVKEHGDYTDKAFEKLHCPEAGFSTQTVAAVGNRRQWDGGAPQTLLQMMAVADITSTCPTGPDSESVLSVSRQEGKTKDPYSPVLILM

NTRK1 (human) = NTRK1 (human) (UniProt P04629)
OXSR1 (human) = OXSR1 (human) (UniProt O95747)
PAK3 (human) = PAK3 (human) (UniProt O75914)
PDGFRB (human) = PDGFRB (human) (UniProt P09619)
Sequence of PDGFRB (human) (P09619 whole entry, looked up): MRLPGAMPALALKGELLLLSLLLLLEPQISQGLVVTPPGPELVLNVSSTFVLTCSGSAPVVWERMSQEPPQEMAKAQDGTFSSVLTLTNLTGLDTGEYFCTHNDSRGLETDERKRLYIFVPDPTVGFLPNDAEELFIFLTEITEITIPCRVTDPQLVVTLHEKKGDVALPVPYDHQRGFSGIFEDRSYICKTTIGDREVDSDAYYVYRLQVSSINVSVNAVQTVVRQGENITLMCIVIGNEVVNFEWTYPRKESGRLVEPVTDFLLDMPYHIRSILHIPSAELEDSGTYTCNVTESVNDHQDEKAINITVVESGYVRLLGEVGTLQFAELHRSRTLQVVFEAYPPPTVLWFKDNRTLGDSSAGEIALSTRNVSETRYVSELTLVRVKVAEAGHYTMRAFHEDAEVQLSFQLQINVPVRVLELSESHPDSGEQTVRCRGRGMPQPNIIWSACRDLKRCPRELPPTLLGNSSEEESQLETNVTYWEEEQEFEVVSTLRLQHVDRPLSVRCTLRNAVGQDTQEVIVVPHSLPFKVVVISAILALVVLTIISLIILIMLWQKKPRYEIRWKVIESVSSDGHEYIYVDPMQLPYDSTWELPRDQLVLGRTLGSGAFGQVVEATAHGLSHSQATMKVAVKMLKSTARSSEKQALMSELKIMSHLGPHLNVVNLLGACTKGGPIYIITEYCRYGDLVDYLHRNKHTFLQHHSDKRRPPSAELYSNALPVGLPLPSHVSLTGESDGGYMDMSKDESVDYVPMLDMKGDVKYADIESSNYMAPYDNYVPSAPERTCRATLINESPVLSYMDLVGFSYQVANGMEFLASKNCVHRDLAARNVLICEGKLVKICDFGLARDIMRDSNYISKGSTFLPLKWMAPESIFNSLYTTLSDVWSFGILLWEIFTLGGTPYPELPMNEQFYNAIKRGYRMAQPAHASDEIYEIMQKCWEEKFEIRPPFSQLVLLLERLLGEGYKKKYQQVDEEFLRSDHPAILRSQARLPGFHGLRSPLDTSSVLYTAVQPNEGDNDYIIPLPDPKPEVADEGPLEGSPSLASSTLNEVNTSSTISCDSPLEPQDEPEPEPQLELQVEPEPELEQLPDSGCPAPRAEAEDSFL

[3] = tested on: PIK3CA (human), P42336 [I800L]
[4] = tested on: PIK3CA (human), P42336 [Q546K]
PKMYT1 (human) = PKMYT1 (human) (UniProt Q99640)
Sequence of PKMYT1 (human) (Q99640 whole entry, looked up): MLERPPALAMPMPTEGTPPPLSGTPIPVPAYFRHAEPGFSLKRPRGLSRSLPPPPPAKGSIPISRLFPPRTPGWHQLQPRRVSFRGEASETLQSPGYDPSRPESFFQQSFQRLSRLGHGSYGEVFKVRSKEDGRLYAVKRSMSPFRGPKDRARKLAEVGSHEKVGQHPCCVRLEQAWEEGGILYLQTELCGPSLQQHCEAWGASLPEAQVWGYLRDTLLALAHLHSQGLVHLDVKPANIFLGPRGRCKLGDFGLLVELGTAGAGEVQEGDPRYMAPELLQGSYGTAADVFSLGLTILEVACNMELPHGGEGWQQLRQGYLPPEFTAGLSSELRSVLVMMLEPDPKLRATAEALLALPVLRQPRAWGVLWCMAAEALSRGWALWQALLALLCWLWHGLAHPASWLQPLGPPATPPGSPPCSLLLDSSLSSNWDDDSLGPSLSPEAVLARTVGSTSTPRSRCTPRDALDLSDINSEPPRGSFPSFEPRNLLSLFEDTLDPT

PRKCH (human) = PRKCH (human) (UniProt P24723)
PRPF4B (human) = PRPF4B (human) (UniProt Q13523)
Sequence of PRPF4B (human) (Q13523 whole entry, looked up): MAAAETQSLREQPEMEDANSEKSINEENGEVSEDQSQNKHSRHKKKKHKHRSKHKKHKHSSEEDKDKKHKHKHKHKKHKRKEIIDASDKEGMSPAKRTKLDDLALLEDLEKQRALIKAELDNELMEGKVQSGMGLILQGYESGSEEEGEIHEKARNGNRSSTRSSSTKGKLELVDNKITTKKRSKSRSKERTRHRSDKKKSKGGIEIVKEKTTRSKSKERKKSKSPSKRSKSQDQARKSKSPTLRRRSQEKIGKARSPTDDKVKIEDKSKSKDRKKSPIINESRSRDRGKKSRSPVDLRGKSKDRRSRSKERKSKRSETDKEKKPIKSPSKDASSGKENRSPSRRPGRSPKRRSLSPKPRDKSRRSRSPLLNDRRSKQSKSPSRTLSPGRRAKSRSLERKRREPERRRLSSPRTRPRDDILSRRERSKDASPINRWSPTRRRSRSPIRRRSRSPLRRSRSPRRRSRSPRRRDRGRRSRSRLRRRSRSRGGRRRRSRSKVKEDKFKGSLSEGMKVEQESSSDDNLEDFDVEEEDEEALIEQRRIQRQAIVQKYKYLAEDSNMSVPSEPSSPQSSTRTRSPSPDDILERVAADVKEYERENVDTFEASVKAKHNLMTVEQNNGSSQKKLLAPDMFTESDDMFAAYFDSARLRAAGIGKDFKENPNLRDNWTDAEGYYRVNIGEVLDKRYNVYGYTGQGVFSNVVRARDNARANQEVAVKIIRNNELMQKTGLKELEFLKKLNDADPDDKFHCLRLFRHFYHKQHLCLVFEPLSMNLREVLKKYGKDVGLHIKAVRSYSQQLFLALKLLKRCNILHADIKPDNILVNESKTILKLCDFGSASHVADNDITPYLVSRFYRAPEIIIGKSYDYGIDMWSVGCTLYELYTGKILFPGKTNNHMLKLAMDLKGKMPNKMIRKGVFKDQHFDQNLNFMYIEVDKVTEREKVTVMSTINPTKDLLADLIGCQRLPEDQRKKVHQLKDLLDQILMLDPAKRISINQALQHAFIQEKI

RIOK1 (human) = RIOK1 (human) (UniProt Q9BRS2)
RIOK2 (human) = RIOK2 (human) (UniProt Q9BVS4)
ROS1 (human) = ROS1 (human) (UniProt P08922)
RPS6KA2 KD2 (human) = RPS6KA2 KD2 (human) (UniProt Q15349)
SBK1 (human) = SBK1 (human) (UniProt Q52WX2)
SNRK (human) = SNRK (human) (UniProt Q9NRH2)
SRPK3 (human) = SRPK3 (human) (UniProt Q9UPE1)
STK32A (human) = STK32A (human) (UniProt Q8WU08)
STK38L (human) = STK38L (human) (UniProt Q9Y2H1)
TNIK (human) = TNIK (human) (UniProt Q9UKE5)

Sequence of CDK19 (human) (Q9BWU1 whole entry, looked up): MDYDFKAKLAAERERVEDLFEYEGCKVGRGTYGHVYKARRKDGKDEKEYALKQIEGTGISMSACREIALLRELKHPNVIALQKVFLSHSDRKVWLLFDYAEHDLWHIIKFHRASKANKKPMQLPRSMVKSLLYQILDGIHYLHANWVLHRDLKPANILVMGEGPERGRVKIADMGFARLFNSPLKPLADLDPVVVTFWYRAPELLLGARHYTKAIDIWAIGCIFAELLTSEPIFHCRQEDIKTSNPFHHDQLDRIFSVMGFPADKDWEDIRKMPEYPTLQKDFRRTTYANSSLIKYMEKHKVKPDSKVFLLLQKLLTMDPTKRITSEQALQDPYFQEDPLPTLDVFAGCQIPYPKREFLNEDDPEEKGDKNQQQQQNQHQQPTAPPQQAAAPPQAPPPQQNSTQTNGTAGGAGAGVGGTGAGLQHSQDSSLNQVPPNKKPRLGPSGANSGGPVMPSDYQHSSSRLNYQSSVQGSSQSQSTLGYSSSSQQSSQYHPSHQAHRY

| SMILES | kinase still bound, per cent of control (CDK19 (human)) [%] | kinase still bound, per cent of control (CSNK1E (human)) [%] | kinase still bound, per cent of control (CSNK1G3 (human)) [%] | kinase still bound, per cent of control (CSNK2A2 (human)) [%] | kinase still bound, per cent of control (CaMK1 (human)) [%] | kinase still bound, per cent of control (EPHA5 (human)) [%] | kinase still bound, per cent of control (FGFR4 (human)) [%] | kinase still bound, per cent of control (FLT4 (human)) [%] | kinase still bound, per cent of control [1] [%] | kinase still bound, per cent of control [2] [%] | kinase still bound, per cent of control (LIMK1 (human)) [%] | kinase still bound, per cent of control (MAP3K9 (human)) [%] | kinase still bound, per cent of control (MAPK12 (human)) [%] | kinase still bound, per cent of control (MAPK7 (human)) [%] | kinase still bound, per cent of control (MAPK8 (human)) [%] | kinase still bound, per cent of control (MAPKAPK2 (human)) [%] | kinase still bound, per cent of control (MARK2 (human)) [%] | kinase still bound, per cent of control (MELK (human)) [%] | kinase still bound, per cent of control (MYLK (human)) [%] | kinase still bound, per cent of control (MYLK2 (human)) [%] | further results |
| --- | --- | --- | --- | --- | --- | --- | --- | --- | --- | --- | --- | --- | --- | --- | --- | --- | --- | --- | --- | --- | --- |
| Cc1ccc(NC(=O)c2cccc(C(C)(C)C#N)c2)cc1Nc1ccc2ncn(C)c(=O)c2c1 | 35 | 100 | 100 | 100 | 87 | 1 | 100 | 0.15 | 0.35 | 0.05 | 100 | 94 | 45 | 100 | 100 | 100 | 92 | 100 | 98 | 100 | kinase still bound, per cent of control (NEK5 (human)): 33%; kinase still bound, per cent of control (NTRK1 (human)): 98%; kinase still bound, per cent of control (OXSR1 (human)): 96%; kinase still bound, per cent of control (PAK3 (human)): 81%; kinase still bound, per cent of control (PDGFRB (human)): 0%; kinase still bound, per cent of control [3]: 100%; kinase still bound, per cent of control [4]: 88%; kinase still bound, per cent of control (PKMYT1 (human)): 98%; kinase still bound, per cent of control (PRKCH (human)): 100%; kinase still bound, per cent of control (PRPF4B (human)): 100%; kinase still bound, per cent of control (RIOK1 (human)): 100%; kinase still bound, per cent of control (RIOK2 (human)): 100%; kinase still bound, per cent of control (ROS1 (human)): 100%; kinase still bound, per cent of control (RPS6KA2 KD2 (human)): 84%; kinase still bound, per cent of control (SBK1 (human)): 79%; kinase still bound, per cent of control (SNRK (human)): 100%; kinase still bound, per cent of control (SRPK3 (human)): 100%; kinase still bound, per cent of control (STK32A (human)): 100%; kinase still bound, per cent of control (STK38L (human)): 100%; kinase still bound, per cent of control (TNIK (human)): 3.4% |
| COc1cc(N2CCN(C)CC2)ccc1Nc1nc(N)c(C(=O)c2c(Cl)cccc2Cl)s1 | 93 | 56 | 79 | 88 | 0.75 | 100 | 89 | 100 | 100 | 100 | 74 | 100 | 100 | 14 | 81 | 100 | 90 | 100 | 18 | 87 | kinase still bound, per cent of control (NEK5 (human)): 96%; kinase still bound, per cent of control (NTRK1 (human)): 62%; kinase still bound, per cent of control (OXSR1 (human)): 100%; kinase still bound, per cent of control (PAK3 (human)): 94%; kinase still bound, per cent of control (PDGFRB (human)): 100%; kinase still bound, per cent of control [3]: 96%; kinase still bound, per cent of control [4]: 78%; kinase still bound, per cent of control (PKMYT1 (human)): 100%; kinase still bound, per cent of control (PRKCH (human)): 93%; kinase still bound, per cent of control (PRPF4B (human)): 100%; kinase still bound, per cent of control (RIOK1 (human)): 100%; kinase still bound, per cent of control (RIOK2 (human)): 100%; kinase still bound, per cent of control (ROS1 (human)): 11%; kinase still bound, per cent of control (RPS6KA2 KD2 (human)): 2.9%; kinase still bound, per cent of control (SBK1 (human)): 80%; kinase still bound, per cent of control (SNRK (human)): 82%; kinase still bound, per cent of control (SRPK3 (human)): 77%; kinase still bound, per cent of control (STK32A (human)): 88%; kinase still bound, per cent of control (STK38L (human)): 84%; kinase still bound, per cent of control (TNIK (human)): 69% |
| C[C@@H](Oc1cc(-n2cnc3ccc(CN4CCN(C)CC4)cc32)sc1C(N)=O)c1ccccc1C(F)(F)F | 100 | 100 | 100 | 4.6 | 90 | 100 | 100 | 63 | 37 | 38 | 100 | 17 | 95 | 91 | 100 | 100 | 53 | 49 | 62 | 61 | kinase still bound, per cent of control (NEK5 (human)): 25%; kinase still bound, per cent of control (NTRK1 (human)): 74%; kinase still bound, per cent of control (OXSR1 (human)): 98%; kinase still bound, per cent of control (PAK3 (human)): 96%; kinase still bound, per cent of control (PDGFRB (human)): 9.8%; kinase still bound, per cent of control [3]: 24%; kinase still bound, per cent of control [4]: 29%; kinase still bound, per cent of control (PKMYT1 (human)): 100%; kinase still bound, per cent of control (PRKCH (human)): 90%; kinase still bound, per cent of control (PRPF4B (human)): 39%; kinase still bound, per cent of control (RIOK1 (human)): 4.4%; kinase still bound, per cent of control (RIOK2 (human)): 65%; kinase still bound, per cent of control (ROS1 (human)): 84%; kinase still bound, per cent of control (RPS6KA2 KD2 (human)): 74%; kinase still bound, per cent of control (SBK1 (human)): 55%; kinase still bound, per cent of control (SNRK (human)): 100%; kinase still bound, per cent of control (SRPK3 (human)): 9.6%; kinase still bound, per cent of control (STK32A (human)): 66%; kinase still bound, per cent of control (STK38L (human)): 100%; kinase still bound, per cent of control (TNIK (human)): 78% |
